# Laboratory results: patent US20110293658A1, “USE OF INKT OR TLR AGONISTS FOR PROTECTING AGAINST OR TREATING A DISEASE SUCH AS ACUTE INFECTION OR CANCER” (LUDWIG INSTITUTE FOR CANCER RESEARCH LTD., priority 2008, published 2011)
# Values joined by “and” are separate entries in the source; they are usually repeats but may differ in a detail not shown here. Identical values can stand only once.
# How the values were obtained:
# NOS2 = NOS2 activity of α-GalCer pulsed MDSC (nitrate/nitrite release); assay type: cell-based, mouse; details: MDSC pulsed with 100 ng α-GalCer in the presence of iNKT cells
# Procedure: (§1) (A) Loss of ARG1 and NOS2 activity in α-GalCer pulsed MDSC incubated with BM derived iNKT cells. MDSC were treated with α-GalCer in the presence of iNKT cells and collected at different time points. ARG1 and NOS2 activities were measured using a colorimetric assay to evaluate urea and nitrate/nitrite release, respectively (De Santo et al. 2005. Proc Natl Acad Sci USA 102:4185-4190. Serafini et al. 2006. J Exp Med 203:2691-2702). An ELISA was used to evaluate IL-12p40 production. Values are shown as a percentage of time point 0. The maximum amount of urea released by untreated MDSC (1×10^6) was 91.7 μg. The maximum amount of […] measured in the supernatant of untreated MDSC was 120 μM. The maximum amount of IL-12p40 was 200 ng/ml.
# (§2) Measuring activity of MDSC enzymes. ARG1 and NOS2 activities of α-GalCer pulsed BM-derived MDSC co-cultured with BM derived iNKT cells were assessed at different time points. NOS2 activity was measured from supernatants by Griess reaction, as the amount of NO3- and NO2-produced using a nitrate/nitrite assay kit (Cayman Chemicals) (Proc Natl Acad Sci USA 102:4185-4190). ARG1 activity was measured in cell lysates, as previously described (Proc Natl Acad Sci USA 102:4185-4190).
# [1] = test system: EG7 cells (EL4 tumor cell line transfected with ovalbumin cDNA); parameters: species or system C57 BL/6 mice; details: mouse, in vivo, iv
# BM derived MDSC [2] = assay: iNKT cell dependent lysis of α-GalCer pulsed MDSC; assay type: cell-based, mouse; details: MDSC pulsed with 100 ng of α-GalCer
# Procedure: CFSE labelled BM derived MDSC were either pulsed or not pulsed with α-GalCer and incubated with CD11c and Gr-1 depleted BM cultures, which contain iNKT cells.
# CD11bCD15 positive cells = assay: Melan-A priming experiments with CD11bCD15 positive cells from melanoma patients; assay type: cell-based, human; details: CD11bCD15 positive cells pulsed with alphaGalCer 100 ng or Threitolceramide 200 ng
# Procedure: CD11bCD15 positive cells were pulsed with either alphaGalCer (100 ng) or Threitolceramide (200 ng) for 2 hours and then incubated with autologous iNKT cells overnight before adding autologous DC pulsed with Melan-A26-35 peptide and autologous CD11bCD15 cell depleted total leukocytes.
# Experiments in FIG. 29 were carried out using the same conditions as shown in the right column of FIG. 28 (i.e. in the presence of iNKT cells and alphaGalCer pulsed CD11bCD15 positive cells) in the presence of either blocking anti CD1d (middle column) or blocking anti CD40 (right column) antibodies.
# In order to assess whether secretion of IL-10 is contributing to the suppressive activity of CD11bCD15 positive cells, expansion of Melan-A26-35 specific T cell responses as assessed in the presence or absence of blocking anti 11-10 receptor antibodies. In the left hand panel of FIG. 31, expansion of Melan-A26-35 specific T cells was assessed using total leukocytes from which CD11b-CD15+ cells were removed (2.33%). Addition of CD11bCD15 positive cells reduced the frequency of Melan-A26-35 specific T cells (0.83%) (central panel).
# Purification of CD11b/CD15+ cells. Since CD15 CD11b positive cells have granulocyte density, it is important to purify them without using density gradients, such as Ficol. Red blood cells are lysed from whole blood, using red lysis cell buffer and anti CD11b/CD15 specific antibodies are added to the leukocytes for FACS guided cell sorting.
# Melan-A priming experiments. DCs were generated by culturing monocytes for 4 days in RPMI/10% FCS supplemented with 50 ng/ml GM-CSF (Pepro-tech) and 1,000 U/ml IL-4 (Salio, M., et al. 2007. Proc. Natl. Acad. Sci. U.S.A. 104:20490-20495). […] After 2 weeks, cells were stained with HLA-A2 tetramers loaded with melan-A26-35 peptide and anti CD8.
# Harnessing iNKT cells. The protocol to purify Cdl lbCd15 cells and differentiate DC is similar to the protocol described earlier. Cdl lbCd15 cells were pulsed with either alphaGalCer (100 ng) or with threitolceramide (200 ng) and then incubated with iNKT cells for 12 hours. Cells were then washed pulsed with the melan-A26-35 peptide and incubated with total leukocytes. After 2 weeks in culture, cells were stained with HLA-A2 melan-A tetramers and anti-CD8 antibodies.
# BM derived MDSC [3] = assay: OT-I proliferation assay with BM derived MDSC; assay type: cell-based, mouse; details: MDSC pulsed with α-GalCer in the presence of BM resident iNKT cells from WT mice
# human MDSC = assay: iNKT cell dependent killing of α-GalCer pulsed human MDSC (Propidium Iodide); assay type: cell-based; details: α-GalCer 100 ng/ml, MDSC:iNKT cell ratio of 1:0.25, 24 h
# Procedure: (B) Conditions to prevent lysis of α-GalCer pulsed human MDSC by iNKT cells. Human MDSC (0.5×10^6) were treated with α-GalCer (100 ng/ml) and co-cultured with increasing numbers of iNKT cells for 24 h. MDSC were stained with Propidium Iodide to calculate the percentage of iNKT cell dependent MDSC killing.
# IL-23 and IL-12p70 = IL-23 and IL-12p70 secretion by α-GalCer pulsed MDSC; assay type: cell-based, mouse; details: MDSC pulsed with α-GalCer in the presence of iNKT cells; data not shown
# [4] = test system: CD11b+ cells from IAV infected individuals; assay type: cell-based, human; details: α-GalCer 100 ng/ml in presence of iNKT cells at MDSC:iNKT ratio 1:0.25, or ARG1 and NOS2 inhibitors; DC:CD11b+ 1:1
# IL-12p40 = IL-12p40 production by MDSC (ELISA); assay type: cell-based, mouse; details: MDSC pulsed with 100 ng α-GalCer in the presence of iNKT cells
# iNKT cells = assay: IFN-γ release from iNKT cells incubated with α-GalCer pulsed CD11b+ cells; assay type: cell-based, human; details: α-GalCer pulsed CD11b+ cells from IAV infected patients, 24 h
# Procedure: (C) iNKT cells are activated by α-GalCer pulsed CD11b^+ cells from IAV infected patients. IFN-γ release from iNKT cells incubated for 24 h with α-GalCer pulsed CD11b^+ cells, derived from the IAV infected patients and healthy controls described in FIG. 7. Data represent the average of 3 replicates ±S.D.
# BM derived MDSC [5] = assay: Phenotypic analysis of treated MDSC (FACS); assay type: cell-based, mouse
# ARG1 = ARG1 activity of α-GalCer pulsed MDSC (urea release); assay type: cell-based, mouse; details: MDSC pulsed with 100 ng α-GalCer in the presence of iNKT cells
# Procedure: as §1, §2
smiles,measurement,setting,value
"CCCCCCCCCCCCCCCCCCCCCCCCCC(=O)N[C@@H](CO[C@H]1O[C@H](CO)[C@H](O)[C@H](O)[C@H]1O)[C@H](O)[C@H](O)CCCCCCCCCCCCCC [α-GalCer, α-Galactosylceramide]",NOS2 activity,NOS2,reduction
same,frequency of MDSCs (CD11b+Gr1+ positive cells),[1],lower frequency
same,frequency of Ova specific T cell responses (H-2Kb tetramer staining),[1],higher frequency
same,tumor size / tumor regression,[1],Tumour regression
same,lysis of pulsed MDSC by iNKT cells,BM derived MDSC [2],not lysed
same,frequency of Melan-A26-35 specific T cells,"CD11bCD15 positive cells; in the absence of added iNKT cells, unpulsed 0.34%",0.32%
same,frequency of Melan-A26-35 specific T cells,CD11bCD15 positive cells; with addition of autologous iNKT cells,3.05% and 6.42%
same,MDSC suppression of CFSE labelled OT-I proliferation,BM derived MDSC [3],completely relieved
same,iNKT cell dependent MDSC lysis,human MDSC,did not cause iNKT cell dependent MDSC lysis
same,secretion of IL-23 and IL-12p70,IL-23 and IL-12p70,No secretion
same,suppressive activity of CD11b+ cells collected from IAV infected individuals (MLR proliferation),[4],could be reduced
same,secretion of IL-12 p40,IL-12p40,enhanced secretion
same,activation of iNKT cells (IFN-γ release),iNKT cells,activated
same,differentiation of CD11c- MDSC (CD11c expression),"BM derived MDSC [5]; CFSE labelled α-GalCer pulsed MDSC incubated with iNKT cells, 48 h",differentiation into CD11c^+ cells
same,CD86 and MHC class II expression,"BM derived MDSC [5]; α-GalCer pulsed MDSC incubated with iNKT cells, data not shown",up-regulation
same,ARG1 activity,ARG1,reduction
